Reference: patent US20230114153A1, “IMIDAZOLYL THIOPEHENE SULFONYL CARBAMATES FOR USE IN THE TREATMENT OF DISEASES ASSOCIATED WITH ANGIOTENSIN II” (Vicore Pharma AB, priority 2020, published 2023)

Tests used:
CYP1A = molecular target: T1, CYP1A (Homo sapiens, UniProt P05177); test: CYP inhibition in human liver microsomes, CYP1A; format: in vitro ADME; details: probe phenacetin, substrate phenacetin, read-out: CYP1A Inh %
T1 construct: incubated with human liver microsomes; tissue Eurofins (contract protocol) ITEMG232; host or cells: human liver microsomes
T1 sequence (P05177 1-516): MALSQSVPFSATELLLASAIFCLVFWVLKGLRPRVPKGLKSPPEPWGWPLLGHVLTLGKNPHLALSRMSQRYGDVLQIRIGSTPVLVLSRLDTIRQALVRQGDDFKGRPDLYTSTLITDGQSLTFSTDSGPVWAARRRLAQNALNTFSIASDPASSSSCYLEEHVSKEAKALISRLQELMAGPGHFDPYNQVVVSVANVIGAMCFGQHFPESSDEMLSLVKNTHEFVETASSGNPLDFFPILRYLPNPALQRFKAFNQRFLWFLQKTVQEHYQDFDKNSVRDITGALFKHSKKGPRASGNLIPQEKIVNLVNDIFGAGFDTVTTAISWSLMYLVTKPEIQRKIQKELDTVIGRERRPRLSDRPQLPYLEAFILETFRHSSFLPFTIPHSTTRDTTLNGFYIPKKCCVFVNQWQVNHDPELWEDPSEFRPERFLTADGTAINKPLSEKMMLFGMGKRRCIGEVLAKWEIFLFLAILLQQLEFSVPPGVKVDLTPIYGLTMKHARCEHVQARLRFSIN
Method: (§1) The following substrates were used; CYP1A phenacetin, CYP2B6 bupropion, CYP2C8 paclitaxel and amodiaquine, CYP2C9 diclofenac, CYP2C19 omeprazole, CYP2D6 dextromethorphan, CYP3A midazolam and testosterone. At the end of the incubation, the formation of metabolite was monitored by HPLC-MS/MS as the peak area response.

CYP2B6 = molecular target: T2, CYP2B6 (Homo sapiens, UniProt P20813); test: CYP inhibition in human liver microsomes, CYP2B6; format: in vitro ADME; details: probe bupropion, substrate bupropion, read-out: CYP2B6 Inh %
T2 construct: incubated with human liver microsomes; tissue Eurofins (contract protocol) ITEMG232; host or cells: human liver microsomes
T2 sequence (P20813 1-491): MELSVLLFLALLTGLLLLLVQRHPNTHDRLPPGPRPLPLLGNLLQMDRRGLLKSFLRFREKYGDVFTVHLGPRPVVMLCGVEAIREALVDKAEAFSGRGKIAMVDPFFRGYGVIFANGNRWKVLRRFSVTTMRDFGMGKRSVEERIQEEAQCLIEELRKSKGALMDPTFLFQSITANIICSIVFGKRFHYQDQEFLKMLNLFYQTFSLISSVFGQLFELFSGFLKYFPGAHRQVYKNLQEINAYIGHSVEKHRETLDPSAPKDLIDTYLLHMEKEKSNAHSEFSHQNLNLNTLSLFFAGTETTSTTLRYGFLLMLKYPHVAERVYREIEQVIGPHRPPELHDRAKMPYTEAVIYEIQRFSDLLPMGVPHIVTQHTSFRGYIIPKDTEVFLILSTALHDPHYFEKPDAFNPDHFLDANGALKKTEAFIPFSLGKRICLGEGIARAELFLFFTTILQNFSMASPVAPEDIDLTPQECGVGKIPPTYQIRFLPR
Method: as §1

CYP2C8 = molecular target: T3, CYP2C8 (Homo sapiens, UniProt P10632); test: CYP inhibition in human liver microsomes, CYP2C8; format: in vitro ADME; details: probe paclitaxel and amodiaquine, substrates paclitaxel and amodiaquine, read-out: CYP2C8 Inh %
T3 construct: incubated with human liver microsomes; tissue Eurofins (contract protocol) ITEMG232; host or cells: human liver microsomes
T3 sequence (P10632 1-490): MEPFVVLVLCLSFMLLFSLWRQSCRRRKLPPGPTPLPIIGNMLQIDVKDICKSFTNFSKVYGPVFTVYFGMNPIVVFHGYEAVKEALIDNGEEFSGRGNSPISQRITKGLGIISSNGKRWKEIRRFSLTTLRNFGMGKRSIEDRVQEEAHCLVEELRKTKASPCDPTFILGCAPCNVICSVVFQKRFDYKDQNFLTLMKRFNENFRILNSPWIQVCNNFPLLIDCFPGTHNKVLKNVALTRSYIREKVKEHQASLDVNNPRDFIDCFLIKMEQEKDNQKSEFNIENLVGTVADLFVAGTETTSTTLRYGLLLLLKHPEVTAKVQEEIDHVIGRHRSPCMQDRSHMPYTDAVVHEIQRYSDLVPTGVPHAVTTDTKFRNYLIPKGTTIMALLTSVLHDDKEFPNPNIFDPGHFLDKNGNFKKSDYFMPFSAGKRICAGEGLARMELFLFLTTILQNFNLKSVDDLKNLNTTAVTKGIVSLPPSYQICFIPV
Method: as §1

CYP2D6 = molecular target: T4, CYP2D6 (Homo sapiens, UniProt P10635); test: CYP inhibition in human liver microsomes, CYP2D6; format: in vitro ADME; details: probe dextromethorphan, substrate dextromethorphan, read-out: CYP2D6 Inh %
T4 construct: incubated with human liver microsomes; tissue Eurofins (contract protocol) ITEMG232; host or cells: human liver microsomes
Method: as §1

CYP3A4 = molecular target: T5, CYP3A4 (Homo sapiens, UniProt P08684); test: CYP inhibition in human liver microsomes, CYP3A4 (midazolam); format: in vitro ADME; details: probe midazolam, substrate midazolam, read-out: CYP3A4 midazolam Inh %
T5 construct: incubated with human liver microsomes; tissue Eurofins (contract protocol) ITEMG232; host or cells: human liver microsomes
Method: as §1

CYP3A4&5 = test: CYP inhibition in human liver microsomes, CYP3A4&5 (testosterone); format: in vitro ADME; details: probe testosterone, substrate testosterone, read-out: CYP3A4&5 testosterone Inh %
Method: as §1

[1] = molecular target: T6, human recombinant AT2 receptor (Homo sapiens, UniProt P50052); test: Binding to human recombinant AT2 receptor, radiometric scintillation assay (Eurofins ITEM26); details: ligand 125I CGP 42112A, 2-4 h at 37° C., tested at 1, 10, 100 and 1000 nM
T6 construct: Eurofins (contract protocol) ITEM26
T6 sequence (P50052 1-363): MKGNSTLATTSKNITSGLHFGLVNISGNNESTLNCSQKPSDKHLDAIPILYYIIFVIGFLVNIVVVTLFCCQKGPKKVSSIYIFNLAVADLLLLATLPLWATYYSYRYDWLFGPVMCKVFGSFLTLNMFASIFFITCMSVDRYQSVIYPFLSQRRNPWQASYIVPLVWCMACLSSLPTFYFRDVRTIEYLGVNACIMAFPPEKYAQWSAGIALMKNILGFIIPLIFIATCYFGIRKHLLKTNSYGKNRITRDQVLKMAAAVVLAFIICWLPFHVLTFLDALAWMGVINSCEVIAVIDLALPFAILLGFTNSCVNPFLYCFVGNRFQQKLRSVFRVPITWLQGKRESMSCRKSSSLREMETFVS

CYP2C19 = molecular target: T7, CYP2C19 (Homo sapiens, UniProt P33261); test: CYP inhibition in human liver microsomes, CYP2C19; format: in vitro ADME; details: probe omeprazole, substrate omeprazole, read-out: CYP2C19 Inh %
T7 construct: incubated with human liver microsomes; tissue Eurofins (contract protocol) ITEMG232; host or cells: human liver microsomes
Method: as §1

CYP2C9 = molecular target: T8, CYP2C9 (Homo sapiens, UniProt P11712); test: CYP inhibition in human liver microsomes, CYP2C9; format: in vitro ADME; details: probe diclofenac, substrate diclofenac, read-out: CYP2C9 Inh %
T8 construct: incubated with human liver microsomes; tissue Eurofins (contract protocol) ITEMG232; host or cells: human liver microsomes
Method: as §1

T4 sequence (P10635 whole entry): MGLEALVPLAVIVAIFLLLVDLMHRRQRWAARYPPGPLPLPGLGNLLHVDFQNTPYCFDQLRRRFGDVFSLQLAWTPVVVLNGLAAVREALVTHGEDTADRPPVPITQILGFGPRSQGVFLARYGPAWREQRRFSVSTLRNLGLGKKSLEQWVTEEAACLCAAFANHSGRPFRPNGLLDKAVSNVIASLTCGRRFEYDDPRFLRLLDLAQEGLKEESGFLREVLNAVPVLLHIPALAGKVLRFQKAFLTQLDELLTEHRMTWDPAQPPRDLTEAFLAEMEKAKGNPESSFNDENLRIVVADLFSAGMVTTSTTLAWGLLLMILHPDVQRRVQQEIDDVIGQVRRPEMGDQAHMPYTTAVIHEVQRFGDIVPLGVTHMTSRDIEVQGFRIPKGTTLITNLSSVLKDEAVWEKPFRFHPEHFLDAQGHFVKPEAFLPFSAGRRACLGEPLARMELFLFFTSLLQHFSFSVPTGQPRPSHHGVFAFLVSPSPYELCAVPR
T5 sequence (P08684 whole entry): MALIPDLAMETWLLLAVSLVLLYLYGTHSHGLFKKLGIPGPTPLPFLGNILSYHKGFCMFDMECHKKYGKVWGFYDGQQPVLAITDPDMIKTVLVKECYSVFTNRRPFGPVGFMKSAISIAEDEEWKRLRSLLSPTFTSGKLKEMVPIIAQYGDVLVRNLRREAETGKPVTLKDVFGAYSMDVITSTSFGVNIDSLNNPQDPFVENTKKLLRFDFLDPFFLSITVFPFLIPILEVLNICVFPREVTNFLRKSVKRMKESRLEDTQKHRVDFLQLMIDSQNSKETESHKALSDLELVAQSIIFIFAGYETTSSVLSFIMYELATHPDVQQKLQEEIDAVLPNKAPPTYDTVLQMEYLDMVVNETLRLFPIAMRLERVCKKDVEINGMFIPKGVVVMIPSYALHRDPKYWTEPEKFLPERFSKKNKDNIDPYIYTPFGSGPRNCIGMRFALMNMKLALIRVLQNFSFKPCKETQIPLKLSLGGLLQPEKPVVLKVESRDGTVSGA
T8 sequence (P11712 whole entry): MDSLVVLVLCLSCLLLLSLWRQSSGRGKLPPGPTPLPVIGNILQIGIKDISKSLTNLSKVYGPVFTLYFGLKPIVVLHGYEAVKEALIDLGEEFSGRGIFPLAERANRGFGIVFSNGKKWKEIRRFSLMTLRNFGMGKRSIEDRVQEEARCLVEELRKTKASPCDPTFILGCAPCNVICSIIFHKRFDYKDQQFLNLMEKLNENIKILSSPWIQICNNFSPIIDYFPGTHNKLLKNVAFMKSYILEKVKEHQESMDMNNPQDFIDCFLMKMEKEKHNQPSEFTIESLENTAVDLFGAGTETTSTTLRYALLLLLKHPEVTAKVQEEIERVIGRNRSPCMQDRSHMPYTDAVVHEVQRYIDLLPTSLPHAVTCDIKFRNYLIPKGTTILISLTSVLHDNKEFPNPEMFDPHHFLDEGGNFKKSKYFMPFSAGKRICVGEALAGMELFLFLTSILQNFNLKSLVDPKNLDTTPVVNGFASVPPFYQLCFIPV
T7 sequence (P33261 whole entry): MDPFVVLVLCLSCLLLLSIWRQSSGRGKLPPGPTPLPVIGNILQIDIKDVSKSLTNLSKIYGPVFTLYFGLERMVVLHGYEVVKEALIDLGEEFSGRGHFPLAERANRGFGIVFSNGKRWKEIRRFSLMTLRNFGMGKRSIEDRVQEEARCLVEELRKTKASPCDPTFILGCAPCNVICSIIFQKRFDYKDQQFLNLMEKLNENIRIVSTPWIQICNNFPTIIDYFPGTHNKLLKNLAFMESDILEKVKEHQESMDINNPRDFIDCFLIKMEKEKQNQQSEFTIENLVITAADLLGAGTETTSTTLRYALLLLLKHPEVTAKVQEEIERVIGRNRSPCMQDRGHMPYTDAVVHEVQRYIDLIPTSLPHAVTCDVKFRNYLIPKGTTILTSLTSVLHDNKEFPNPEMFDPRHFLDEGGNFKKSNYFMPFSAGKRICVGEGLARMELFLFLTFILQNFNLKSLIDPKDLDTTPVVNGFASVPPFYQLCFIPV

inhibition at 10 µM (CYP1A) [%]	inhibition at 10 µM (CYP2B6) [%]	inhibition at 10 µM (CYP2C8) [%]	inhibition at 10 µM (CYP2D6) [%]	inhibition at 10 µM (CYP3A4) [%]	inhibition at 10 µM (CYP3A4&5) [%]	IC50 [1] [nM]	inhibition at 10 µM (CYP2C19) [%]	inhibition at 10 µM (CYP2C9) [%]	Compound
90.9	48.8	80.4	81.2	95.2	94.2				CCCCOC(=O)NS(=O)(=O)c1sc(CC(C)C)cc1-c1ccc(Cn2ccnc2)cc1 [Example C21, N-butyloxycarbonyl-3-(4-imidazol-1-ylmethylphenyl)-5-isobutylthiophene-2-sulfon-amide, reference compound]
2.5	17.6	37.5	22.4	~0	13.5	0.53	43	58.9	CCCCOC(=O)NS(=O)(=O)c1sc(CC(C)C)cc1-c1ccc(Cn2ccnc2C)cc1 [Example 1, Butyl (5-isobutyl-3-(4-((2-methyl-1H-imidazol-1-yl)methyl)phenyl)thiophen-2-yl)sulfonyl-carbamate]
